In ChEMBL document CHEMBL1147989, “Synthesis and structure-activity relationships of 4-hydroxy-4-phenylpiperidines as nociceptin receptor ligands: Part 2” (Bioorg Med Chem Lett, 2007):

Legend:
Nociceptin receptor [1] = target: T1, Nociceptin receptor (Homo sapiens, UniProt P41146); assay: Displacement of [125I][Tyr14]nociceptin FQ from human NOP receptor expressed in CHO cell membrane; format: cell membranes
[2] = target: Kappa-type opioid receptor (Homo sapiens, UniProt P41145); assay: Displacement of [3H]diprenorphine from human KOP receptor expressed in CHO cell membrane; format: cell membranes
Mu-type opioid receptor = Mu-type opioid receptor (Homo sapiens, UniProt P35372); assay: Displacement of [3H]diprenorphine from human MOP receptor expressed in CHO cell membrane; format: cell membranes
[3] = target: Delta-type opioid receptor (Homo sapiens, UniProt P41143); assay: Displacement of [3H]diprenorphine from human DOP receptor expressed in CHO cell membrane; format: cell membranes
Nociceptin receptor [4] = target: T1, Nociceptin receptor; assay: Agonist activity at human NOP receptor transfected in CHO cells assessed as stimulation of [35S]GTP-gamma-S at 100 uM; format: functional, cell-based
Nociceptin receptor [5] = target: T1, Nociceptin receptor; assay: Activity at human NOP receptor transfected in CHO cells assessed as inhibition of [35S]GTP-gamma-S at 1 uM; format: functional, cell-based
Nociceptin receptor [6] = target: T1, Nociceptin receptor; assay: Agonist activity at human NOP receptor transfected in CHO cells assessed as stimulation of [35S]GTP-gamma-S at 0.1 uM; format: functional, cell-based
Nociceptin receptor [7] = target: T1, Nociceptin receptor; assay: Agonist activity at human NOP receptor transfected in CHO cells assessed as stimulation of [35S]GTPgammaS at 1 uM; format: functional, cell-based
Nociceptin receptor [8] = target: T1, Nociceptin receptor; assay: Activity at human NOP receptor transfected in CHO cells assessed as inhibition of [35S]GTPgammaS at 10 uM; format: functional, cell-based

Sequence of Kappa-type opioid receptor (P41145 whole entry): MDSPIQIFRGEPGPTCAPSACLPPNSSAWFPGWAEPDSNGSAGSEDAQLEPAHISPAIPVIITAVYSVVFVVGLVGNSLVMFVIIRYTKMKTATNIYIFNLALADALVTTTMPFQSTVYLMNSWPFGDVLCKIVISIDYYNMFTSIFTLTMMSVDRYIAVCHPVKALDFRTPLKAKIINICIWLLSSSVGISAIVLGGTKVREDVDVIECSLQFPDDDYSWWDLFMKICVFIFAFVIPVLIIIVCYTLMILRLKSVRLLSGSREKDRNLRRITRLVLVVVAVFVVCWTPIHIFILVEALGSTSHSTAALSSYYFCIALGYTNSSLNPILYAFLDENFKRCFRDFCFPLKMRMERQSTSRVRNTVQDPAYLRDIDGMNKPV
Sequence of Mu-type opioid receptor (P35372 whole entry): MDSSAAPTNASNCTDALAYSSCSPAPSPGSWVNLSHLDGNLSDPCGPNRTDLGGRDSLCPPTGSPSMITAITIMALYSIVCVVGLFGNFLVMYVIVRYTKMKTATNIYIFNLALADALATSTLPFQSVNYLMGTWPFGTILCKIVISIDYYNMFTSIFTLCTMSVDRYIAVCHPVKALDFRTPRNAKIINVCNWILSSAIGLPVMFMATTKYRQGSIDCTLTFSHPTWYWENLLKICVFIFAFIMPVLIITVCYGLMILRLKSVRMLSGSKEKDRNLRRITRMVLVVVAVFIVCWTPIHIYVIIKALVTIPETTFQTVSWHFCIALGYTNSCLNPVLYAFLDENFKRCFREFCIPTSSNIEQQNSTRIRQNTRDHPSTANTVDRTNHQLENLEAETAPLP
Sequence of Delta-type opioid receptor (P41143 whole entry): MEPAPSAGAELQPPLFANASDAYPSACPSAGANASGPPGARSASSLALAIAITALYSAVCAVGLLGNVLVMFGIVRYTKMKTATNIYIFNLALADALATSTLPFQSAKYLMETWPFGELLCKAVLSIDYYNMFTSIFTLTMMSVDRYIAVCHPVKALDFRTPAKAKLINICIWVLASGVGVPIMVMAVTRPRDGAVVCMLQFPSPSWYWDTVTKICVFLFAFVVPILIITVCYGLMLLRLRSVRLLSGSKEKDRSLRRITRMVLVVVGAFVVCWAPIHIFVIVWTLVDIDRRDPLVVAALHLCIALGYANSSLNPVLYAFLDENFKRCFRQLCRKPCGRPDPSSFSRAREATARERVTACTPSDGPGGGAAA
T1 sequence (P41146 whole entry): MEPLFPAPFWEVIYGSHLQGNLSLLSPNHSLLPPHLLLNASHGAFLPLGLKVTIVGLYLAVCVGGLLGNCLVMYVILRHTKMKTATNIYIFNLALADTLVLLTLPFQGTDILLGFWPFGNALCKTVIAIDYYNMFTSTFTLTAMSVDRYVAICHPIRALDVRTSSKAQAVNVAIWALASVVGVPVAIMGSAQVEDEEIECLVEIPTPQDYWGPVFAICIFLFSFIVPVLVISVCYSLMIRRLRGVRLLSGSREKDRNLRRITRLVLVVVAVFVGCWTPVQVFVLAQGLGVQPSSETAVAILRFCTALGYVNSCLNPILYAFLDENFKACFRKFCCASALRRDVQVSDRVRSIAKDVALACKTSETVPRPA

SMILES	Ki (Nociceptin receptor [1]) [nM]	Ki [2] [nM]	Ki (Mu-type opioid receptor) [nM]	Ki [3] [nM]	also measured
CCCCc1ccc(C2(O)CCN(C(c3ccccc3)c3ccccc3)CC2)cc1	9160				
CCNC(=O)NCc1ccccc1C1(O)CCN(C(c2ccccc2Cl)c2ccccc2Cl)CC1	12	330	304	2440	
OC1(c2cccc(F)c2)CCN(C(c2ccccc2)c2ccccc2)CC1	23	1990	705	5610	Activity (Nociceptin receptor [4]): 61%
CN(C)c1ccc(C2(O)CCN(C(c3ccccc3)c3ccccc3)CC2)cc1	4540				
NCc1ccccc1C1(O)CCN(Cc2ccccc2)CC1	455				
OC1(c2ccccc2CN2CCNCC2)CCN(C(c2ccccc2Cl)c2ccccc2Cl)CC1	1.9	261	145	1170	
NCc1ccccc1C1(O)CCN(CC2CCCCCC2)CC1	4.6	664	452	99500	inhibition (Nociceptin receptor [5]): 67%
NCc1ccccc1C1(O)CCN(C(c2ccc(Cl)cc2)c2ccc(Cl)cc2)CC1	674	2090	3080	3990	
OC1(c2ccccn2)CCN(C(c2ccccc2)c2ccccc2)CC1	313	13200	11500	45600	
OC1(c2ccccc2CN2CCOCC2)CCN(C(c2ccccc2Cl)c2ccccc2Cl)CC1	5.9	323	120	2910	
Cc1ccccc1C(c1ccccc1)N1CCC(O)(c2ccccc2CN)CC1 (configuration not stated)	0.7	725	28	2870	Activity (Nociceptin receptor [6]): 119%
Cc1cccc(C2(O)CCN(C(c3ccccc3)c3ccccc3)CC2)c1	27	1150	273	7800	
OC1(CCCc2ccccc2)CCN(C(c2ccccc2)c2ccccc2)CC1	1670	1800	3360	13800	
OC1(c2ccc(Cl)cc2)CCN(C(c2ccccc2)c2ccccc2)CC1	24	1700	936	6360	
Cc1ccc(C(c2ccc(C)cc2)N2CCC(O)(c3ccccc3CN)CC2)cc1	110	1060	502	8900	
CC(C)(C)C1(O)CCN(C(c2ccccc2)c2ccccc2)CC1	62	1070	3600	56600	
NCc1ccccc1C1(O)CCN(C(c2ccccc2F)c2ccccc2F)CC1	0.5	116	37	3700	
CC(C)C1(O)CCN(C(c2ccccc2)c2ccccc2)CC1	433	7390	13200	52800	
CCCc1ccc(C2(O)CCN(C(c3ccccc3)c3ccccc3)CC2)cc1	1750	19700	11400	33300	

SMILES	Ki (Nociceptin receptor [1]) [nM]	Ki [2] [nM]	Ki (Mu-type opioid receptor) [nM]	Ki [3] [nM]	also measured
CNCc1ccccc1C1(O)CCN(C(c2ccccc2Cl)c2ccccc2Cl)CC1	0.7	255	167	3820	
NCc1ccccc1C1(O)CCN(C(c2ccccc2Br)c2ccccc2Br)CC1	1.8	278	616	3200	Activity (Nociceptin receptor [7]): 104%
CN1CCN(Cc2ccccc2C2(O)CCN(C(c3ccccc3Cl)c3ccccc3Cl)CC2)CC1	2.2	139	190	1700	
CNC(=O)NCc1ccccc1C1(O)CCN(C(c2ccccc2Cl)c2ccccc2Cl)CC1	2	215	198	1990	
Cc1ccccc1C1(O)CCN(C(c2ccccc2)c2ccccc2)CC1	11	818	74	1670	Activity (Nociceptin receptor [4]): 69%
OC1(Cc2ccccc2)CCN(C(c2ccccc2)c2ccccc2)CC1	2180	1440	10400	15000	
OC1(c2nccs2)CCN(C(c2ccccc2)c2ccccc2)CC1	1270				
OC1(C2CCCCC2)CCN(C(c2ccccc2)c2ccccc2)CC1	17	387	407	8110	Activity (Nociceptin receptor [4]): 121%
COc1ccc(C2(O)CCN(C(c3ccccc3)c3ccccc3)CC2)cc1	588	10300	11100	19200	
CCCCC(c1ccccc1)N1CCC(O)(c2ccccc2CN)CC1 (configuration not stated)	0.4	15	2	1210	
OCc1ccccc1C1(O)CCN(C(c2ccccc2)c2ccccc2)CC1	16	2770	186	4360	
NCc1ccccc1C1(O)CCN(C(c2ccccc2)c2ccccc2Cl)CC1 (configuration not stated)	0.5	425	72	3700	Activity (Nociceptin receptor [6]): 116%
CCc1ccc(C2(O)CCN(C(c3ccccc3)c3ccccc3)CC2)cc1	1280	11400	3430	24900	
COc1cccc(C2(O)CCN(C(c3ccccc3)c3ccccc3)CC2)c1	180	3670	2990	9590	
CCCCCCC1(O)CCN(C(c2ccccc2)c2ccccc2)CC1	1150	9220	8900	17900	
CCCCC1(O)CCN(C(c2ccccc2)c2ccccc2)CC1	23	4560	272	18800	
NCc1ccccc1C1(O)CCN(C(c2ccccc2)c2ccccc2)CC1	1.6	1660	125	13900	Ki ([2]; cho): 1660 nM; Ki (Mu-type opioid receptor; cho): 125 nM; Ki ([3]; cho): 13900 nM; Ki (Nociceptin receptor [1]; cho): 1.6 nM
N#Cc1ccc(C2(O)CCN(C(c3ccccc3)c3ccccc3)CC2)cc1	1450	61000	8380	28400	
CCS(=O)(=O)N1CCN(Cc2ccccc2C2(O)CCN(C(c3ccccc3Cl)c3ccccc3Cl)CC2)CC1	0.9	146	351	1590	

SMILES	Ki (Nociceptin receptor [1]) [nM]	Ki [2] [nM]	Ki (Mu-type opioid receptor) [nM]	Ki [3] [nM]	also measured
Cc1ccccc1C(c1ccccc1C)N1CCC(O)(c2ccccc2CN)CC1	0.5	450	190	8440	Activity (Nociceptin receptor [7]): 94%
CC1(C)CCC(N2CCC(O)(c3ccccc3CN)CC2)c2ccccc21 (configuration not stated)	5.5	1350	181	23400	inhibition (Nociceptin receptor [8]): 43%
NCc1ccccc1C1(O)CCN(C(c2ccccc2)c2ccccc2Br)CC1 (configuration not stated)	1.1	279	72	3290	Activity (Nociceptin receptor [7]): 115%
Cc1ccsc1C1(O)CCN(C(c2ccccc2)c2ccccc2)CC1	15	2570	756	8880	
OC1(c2ccc(Br)cc2)CCN(C(c2ccccc2)c2ccccc2)CC1	51	2610	1060	15200	
CCCCCC(c1ccccc1)N1CCC(O)(c2ccccc2CN)CC1 (configuration not stated)	0.5	30	2	606	
NCc1ccccc1C1(O)CCN(C(c2ccccc2Cl)c2ccccc2Cl)CC1	0.5	747	249	3000	Activity (Nociceptin receptor [7]): 102%
Cc1ccc(C2(O)CCN(C(c3ccccc3)c3ccccc3)CC2)cc1	55	4050	940	12100	
NCc1ccccc1C1(O)CCN(C(c2cccc(F)c2)c2cccc(F)c2)CC1	9.6	771	616	9380	
OC1(c2ccc(F)cc2)CCN(C(c2ccccc2)c2ccccc2)CC1	14	759	771	3320	
OC1(C2CC2)CCN(C(c2ccccc2)c2ccccc2)CC1	376	26400	18400	131000	
CC(C)S(=O)(=O)N1CCN(Cc2ccccc2C2(O)CCN(C(c3ccccc3Cl)c3ccccc3Cl)CC2)CC1	0.6	186	353	3160	
OC1(c2ccco2)CCN(C(c2ccccc2)c2ccccc2)CC1	136	9640	4550	14500	
CC(C)S(=O)(=O)NCc1ccccc1C1(O)CCN(C(c2ccccc2Cl)c2ccccc2Cl)CC1	4.1	174	163	518	
COc1ccccc1C1(O)CCN(C(c2ccccc2)c2ccccc2)CC1	85	4160	983	4390	
CCCS(=O)(=O)NCc1ccccc1C1(O)CCN(C(c2ccccc2Cl)c2ccccc2Cl)CC1	15	122	271	777	
OC1(c2ccccc2F)CCN(C(c2ccccc2)c2ccccc2)CC1	34	1740	589	5610	
OC1(c2cccs2)CCN(C(c2ccccc2)c2ccccc2)CC1	48	3410	1730	8450	
